Laboratory results: EPA's aquatic toxicity sets

system: Pimephales promelas; assay: 96 h LC50 (-log10 mol/L); higher = more toxic

First: CCCSSCCC
Second: CCCCC(=O)CCCC
The “96 h LC50 (-log10 mol/L)” value of the first is higher: 4.76 for the first, 3.66 for the second.

Going from C#CCCO to CCNCCO, the “96 h LC50 (-log10 mol/L)” value falls from 3.29 to 1.78.

First: CC(=O)C(C)CN(C)C (stereo unspecified)
Second: CC(=O)Cl
The “96 h LC50 (-log10 mol/L)” value of the first is higher: 4.18 for the first, 3.27 for the second.

Compared with COP(=O)(OC)Oc1nc(Cl)c(Cl)cc1Cl, CC(Oc1cc(Cl)c(Cl)cc1Cl)C(=O)O (stereo unspecified) is lower in “96 h LC50 (-log10 mol/L)” value: 8.16 for the first, 4.2 for the second.

First: C=C[C@@]1(C)CC[C@H]2C(=CC[C@@H]3[C@]2(C)CCC[C@@]3(C)C(=O)O)C1
Second: CC(C)=C1C=C2CC[C@@H]3[C@](C)(CCC[C@@]3(C)C(=O)O)[C@H]2CC1
The “96 h LC50 (-log10 mol/L)” value of the first is higher: 5.54 for the first, 5.31 for the second.

Going from CC1(C)CC(=O)CC(=O)C1 to CC1(C)[C@@H]2CC[C@@]1(C)C(=O)C2, the “96 h LC50 (-log10 mol/L)” value rises from 1.09 to 3.14.

Going from Nc1ccc(S(=O)(=O)O)cc1 to CCC(=O)c1ccc(N)cc1, the “96 h LC50 (-log10 mol/L)” value falls from 3.24 to 3.01.

Going from COc1ccc(OC)cc1 to COP(=S)(OC)Oc1ccc(Sc2ccc(OP(=S)(OC)OC)cc2)cc1, the “96 h LC50 (-log10 mol/L)” value rises from 3.07 to 4.14.

First: CNC(=O)Oc1cccc2c1OC(C)(C)C2
Second: COc1ccccc1C(N)=O
The “96 h LC50 (-log10 mol/L)” value of the first is higher: 5.4 for the first, 3.1 for the second.

First: CC(C)=CCC/C(C)=C/CN(C/C=C(\C)CCC=C(C)C)CCO
Second: O=[N+]([O-])C(CO)(CO)CO
The “96 h LC50 (-log10 mol/L)” value of the first is higher: 6.41 for the first, 2.73 for the second.

COc1cc(Cl)c(Cl)cc1O and CS(=O)(=O)Oc1ccc(Cl)cc1Cl are within 0.2 log units of each other in “96 h LC50 (-log10 mol/L)” value: 4.63 for the first, 4.74 for the second.

Compared with CCOC(=O)C(C)N(C(=O)c1ccccc1)c1ccc(Cl)c(Cl)c1 (stereo unspecified), CCOC(=O)c1ccccc1O is lower in “96 h LC50 (-log10 mol/L)” value: 5.81 for the first, 3.92 for the second.

Going from O=Cc1ccco1 to O=Cc1c(F)cccc1Cl, the “96 h LC50 (-log10 mol/L)” value rises from 3.57 to 4.23.

Going from CCc1cccc(C)c1N(C(=O)CCl)C(C)COC (stereo unspecified) to CCN(CCO)c1cccc(C)c1, the “96 h LC50 (-log10 mol/L)” value falls from 4.54 to 3.53.

Going from CC(C)SSC(C)C to CCC(C)C(C)C=O (stereo unspecified), the “96 h LC50 (-log10 mol/L)” value falls from 4.26 to 3.85.

Compared with OCCN(CCO)c1ccccc1, OCCOc1ccccc1 is higher in “96 h LC50 (-log10 mol/L)” value: 2.39 for the first, 2.6 for the second.

Compared with OC(c1ccc(Cl)cc1)(c1ccc(Cl)cc1)C(Cl)(Cl)Cl, O=C(O)c1c(Cl)ccc(Cl)c1Cl is lower in “96 h LC50 (-log10 mol/L)” value: 5.86 for the first, 4.42 for the second.

ClCCCCCCl and CCCCCCCCOC(=O)C(C)O (stereo unspecified) are within 0.2 log units of each other in “96 h LC50 (-log10 mol/L)” value: 3.75 for the first, 3.93 for the second.

Going from C1OCOCO1 to C1CCOC1, the “96 h LC50 (-log10 mol/L)” value rises from 1.18 to 1.52.

Going from CCOC(=O)/C=C/C(=O)OCC to CCCCN(C=O)CCCC, the “96 h LC50 (-log10 mol/L)” value falls from 4.58 to 3.25.

Compared with Cc1c([N+](=O)[O-])ccc(N)c1[N+](=O)[O-], Cc1cccc([N+](=O)[O-])c1N is lower in “96 h LC50 (-log10 mol/L)” value: 4.25 for the first, 3.8 for the second.

First: CCC(C)n1c(=O)[nH]c(C)c(Br)c1=O (stereo unspecified)
Second: C#CC(O)CCCCC (stereo unspecified)
The “96 h LC50 (-log10 mol/L)” value of the first is lower: 3.15 for the first, 5.49 for the second.

Compared with N#Cc1c(Cl)cccc1Cl, O=C(O)c1c(F)cccc1F is lower in “96 h LC50 (-log10 mol/L)” value: 4.42 for the first, 3.36 for the second.

Going from Brc1ccccc1 to O=C(Cl)c1ccccc1, the “96 h LC50 (-log10 mol/L)” value falls from 4.45 to 3.61.

Going from CC(C)(C)SSC(C)(C)C to CC(C)(O)C(Cl)(Cl)Cl, the “96 h LC50 (-log10 mol/L)” value falls from 5.12 to 3.12.

First: ClC1=C(Cl)[C@]2(Cl)C3C(Cl)C(Cl)CC3[C@@]1(Cl)C2(Cl)Cl (stereo partly specified)
Second: Cl[C@@H]1CCCC[C@H]1Cl
The “96 h LC50 (-log10 mol/L)” value of the first is higher: 6.82 for the first, 3.92 for the second.

First: C1N2CN3CN1CN(C2)C3
Second: CCN(CC)C1CCCCC1
The “96 h LC50 (-log10 mol/L)” value of the first is lower: 0.449 for the first, 3.86 for the second.

First: ClCc1ccc(CCl)cc1
Second: CCCCOc1ccccc1
The “96 h LC50 (-log10 mol/L)” value of the first is higher: 6.65 for the first, 4.42 for the second.

CC(Cl)(Cl)C(=O)O and C=C(Cl)Cl are within 0.2 log units of each other in “96 h LC50 (-log10 mol/L)” value: 2.69 for the first, 2.86 for the second.

Going from CC(C)C(C(=O)OC(C#N)c1cccc(Oc2ccccc2)c1)c1ccc(OC(F)F)cc1 (stereo unspecified) to Cc1cccnc1, the “96 h LC50 (-log10 mol/L)” value falls from 8.98 to 2.81.

First: BrCC1CCCCO1 (stereo unspecified)
Second: O[C@H]1C[C@@H]2CC[C@H]1C2
The “96 h LC50 (-log10 mol/L)” value of the first is higher: 2.94 for the first, 2.69 for the second.

Going from C#CCN(CC#C)CC#C to CCOP(=S)(OCC)SCSP(=S)(OCC)OCC, the “96 h LC50 (-log10 mol/L)” value rises from 2.65 to 5.73.

For C1=C[C@H]2CC[C@@H]1C2, the “96 h LC50 (-log10 mol/L)” value was 3.97.

system: Tetrahymena pyriformis; assay: 48 h IGC50 (-log10 mol/L); higher = more toxic

Compared with OCc1cccc(Br)c1, CN(C)Cc1ccccc1 is lower in “48 h IGC50 (-log10 mol/L)” value: 3.37 for the first, 3.12 for the second.

CCN(C)CC and CCC(N)CC are within 0.2 log units of each other in “48 h IGC50 (-log10 mol/L)” value: 2.24 for the first, 2.19 for the second.

Compared with COc1cc(C=O)cc(O)c1OC, Cc1c(N)ccc(O)c1C is higher in “48 h IGC50 (-log10 mol/L)” value: 2.61 for the first, 4.44 for the second.

CCCCC/C=C/C(=O)OC and CCCCCC/C=C/CO are within 0.2 log units of each other in “48 h IGC50 (-log10 mol/L)” value: 3.77 for the first, 3.75 for the second.

Compared with CC(C)(C)C(=O)CCl, NC(=O)CBr is higher in “48 h IGC50 (-log10 mol/L)” value: 4.27 for the first, 4.52 for the second.

Compared with Cc1cnc2ccccc2n1, Clc1cccc2ccccc12 is higher in “48 h IGC50 (-log10 mol/L)” value: 3.02 for the first, 3.81 for the second.

First: CC1CC(=O)O1 (stereo unspecified)
Second: Cc1ccc(N)c(Cl)c1
The “48 h IGC50 (-log10 mol/L)” value of the first is lower: 2.24 for the first, 3.18 for the second.

Compared with N#Cc1ccc(Cl)c([N+](=O)[O-])c1, CC#CCO is lower in “48 h IGC50 (-log10 mol/L)” value: 4.71 for the first, 2.13 for the second.
